The record followed here is patent US9758524B2, “4-imidazopyridazin-1-yl-benzamides as Btk inhibitors” (Merck Sharp & Dohme B.V., priority 2011, dated 2017).

Several values for one entry are separate records, joined by “and”; a condition that tells them apart may be missing. Equal entries are not always repeated. Where two headings read alike, the source gives them in different places. Some results are limits rather than exact numbers.

Assay [1] has as its target Btk enzyme (His-Btk) (Homo sapiens (Human), UniProt Q06187). Description: Btk enzyme activity (IMAP fluorescence polarization assay). (Polarisation of emitted light reports the rotation of a fluorescent probe.)
Assay [2] concerns the target Lyn enzyme (Homo sapiens (Human), UniProt P07948). Description: Lyn enzyme activity (IMAP fluorescence polarization assay).
In assay [3] the target is Lck enzyme (Homo sapiens (Human), UniProt P06239). Description: Lck enzyme activity (IMAP fluorescence polarization assay).
Sequence of Lck enzyme (P06239 whole entry): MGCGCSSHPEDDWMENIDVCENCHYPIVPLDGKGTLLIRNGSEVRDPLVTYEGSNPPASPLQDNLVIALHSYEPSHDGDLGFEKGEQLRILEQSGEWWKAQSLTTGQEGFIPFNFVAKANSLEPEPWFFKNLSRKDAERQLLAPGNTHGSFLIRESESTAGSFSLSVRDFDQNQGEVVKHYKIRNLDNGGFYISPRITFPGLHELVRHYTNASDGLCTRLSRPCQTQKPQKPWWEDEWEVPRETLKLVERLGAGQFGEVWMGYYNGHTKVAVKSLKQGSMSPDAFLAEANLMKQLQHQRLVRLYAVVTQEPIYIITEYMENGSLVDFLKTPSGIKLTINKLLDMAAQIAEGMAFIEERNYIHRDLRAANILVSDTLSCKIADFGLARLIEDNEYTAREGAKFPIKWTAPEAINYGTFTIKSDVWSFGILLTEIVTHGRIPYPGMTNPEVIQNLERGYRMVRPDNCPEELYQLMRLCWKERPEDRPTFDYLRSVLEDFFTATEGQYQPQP
Assay [4] addresses FynT enzyme (Homo sapiens (Human), UniProt P06241). Kind of assay: FynT enzyme activity (IMAP fluorescence polarization assay). In kind it is biochemical. Conditions: 60 min pre-incubation, 0.2 μM ATP. How it is done: FynT enzyme activity is measured using the IMAP (immobilized metal ion affinity-based fluorescence polarization) assay as outlined below.
Test compounds and FynT enzyme are pre-incubated 60 minutes at room temperature, before adding 5 μL/well of 400 nM Fluorescin labeled substrate peptide (p34cdc2 substrate peptide, e.g. #R7157/#R7172, Molecular Devices) in KR-buffer. Final peptide substrate concentration in assay is 100 nM. […] Following incubation for 2 h at room temperature the enzyme reaction is stopped by adding 40 μL/well IMAP Progressive Binding Solution (according to suppliers (Molecular Devices) protocol using 75% 1× buffer A and 25% 1× buffer B with 1:600 Progressive Binding Solution). After 60 min incubation at room temperature in the dark the FP signal is read. […] Values are calculated as percentage of the difference in readout (ΔmPi) of the controls with and without ATP. EC50 values are determined by curve fitting of the experimental results using Activity Base.

For assay [5], the target named is Src enzyme (Homo sapiens (Human), UniProt P12931). Description: Src enzyme activity (IMAP fluorescence polarization assay).
Sequence of Src enzyme (P12931 whole entry, looked up): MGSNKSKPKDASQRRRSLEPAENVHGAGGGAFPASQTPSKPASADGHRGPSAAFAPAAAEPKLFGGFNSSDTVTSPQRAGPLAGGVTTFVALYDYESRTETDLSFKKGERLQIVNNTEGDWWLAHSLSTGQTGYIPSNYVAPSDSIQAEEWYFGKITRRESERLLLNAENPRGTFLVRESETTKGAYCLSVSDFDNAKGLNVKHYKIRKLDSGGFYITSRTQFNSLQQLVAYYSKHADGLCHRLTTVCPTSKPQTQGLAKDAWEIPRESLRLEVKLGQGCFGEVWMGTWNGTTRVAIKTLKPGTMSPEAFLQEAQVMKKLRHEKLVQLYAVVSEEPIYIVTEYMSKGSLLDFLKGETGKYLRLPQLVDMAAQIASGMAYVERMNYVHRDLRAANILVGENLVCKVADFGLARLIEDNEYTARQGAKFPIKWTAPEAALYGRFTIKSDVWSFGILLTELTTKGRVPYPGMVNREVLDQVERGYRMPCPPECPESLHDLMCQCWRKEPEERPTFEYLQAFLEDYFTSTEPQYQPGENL
The mark [6] stands for this setting: read-out: EC50 Btk activity values, IMAP, 60 min pre-incubation, 5 μM ATP, bin bound in nM.
Where [7] appears, read: read-out: EC50 Lyn activity values, 60 min pre-incubation, 2 μM ATP, bin bound in μM.
[8] abbreviates: IMAP, 60 min pre-incubation, 6 μM ATP, bin bound in μM.
[9] abbreviates: read-out: EC50 Src activity values, IMAP, 60 min pre-incubation, 4 μM ATP.
Where [10] appears, read: read-out: EC50 Lck activity values, IMAP, 60 min pre-incubation, 6 μM ATP, bin bound in μM.
The mark [11] stands for this setting: IMAP, 60 min pre-incubation, 5 μM ATP, bin bound in μM.
The mark [12] stands for this setting: IMAP, 60 min pre-incubation, 5 μM ATP, bin bound in nM.
The mark [13] stands for this setting: EC50 Lyn activity values, 60 min pre-incubation, 2 μM ATP, bin bound in nM.
The mark [14] stands for this setting: EC50 Lyn activity values, 60 min pre-incubation, 2 μM ATP, bin bound in μM.

Sequence of Btk enzyme (His-Btk) (Q06187 whole entry): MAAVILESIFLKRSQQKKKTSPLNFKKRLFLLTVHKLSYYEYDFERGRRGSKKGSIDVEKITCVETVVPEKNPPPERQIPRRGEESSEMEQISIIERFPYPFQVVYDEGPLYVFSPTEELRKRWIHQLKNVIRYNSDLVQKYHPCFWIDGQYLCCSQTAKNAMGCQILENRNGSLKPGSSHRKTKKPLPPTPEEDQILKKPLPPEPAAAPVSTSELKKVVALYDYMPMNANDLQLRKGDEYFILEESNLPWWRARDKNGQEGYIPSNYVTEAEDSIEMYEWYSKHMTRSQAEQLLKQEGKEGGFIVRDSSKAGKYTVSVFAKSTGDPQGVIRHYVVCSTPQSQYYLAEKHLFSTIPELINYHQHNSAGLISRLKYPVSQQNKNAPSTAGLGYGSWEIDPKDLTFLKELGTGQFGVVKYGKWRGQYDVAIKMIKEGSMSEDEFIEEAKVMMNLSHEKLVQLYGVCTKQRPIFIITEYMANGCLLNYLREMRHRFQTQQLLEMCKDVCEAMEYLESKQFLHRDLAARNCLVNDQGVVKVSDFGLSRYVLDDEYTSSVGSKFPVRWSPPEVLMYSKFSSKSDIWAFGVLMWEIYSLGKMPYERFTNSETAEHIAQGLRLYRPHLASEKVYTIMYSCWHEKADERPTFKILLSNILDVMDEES
Sequence of Lyn enzyme (P07948 whole entry): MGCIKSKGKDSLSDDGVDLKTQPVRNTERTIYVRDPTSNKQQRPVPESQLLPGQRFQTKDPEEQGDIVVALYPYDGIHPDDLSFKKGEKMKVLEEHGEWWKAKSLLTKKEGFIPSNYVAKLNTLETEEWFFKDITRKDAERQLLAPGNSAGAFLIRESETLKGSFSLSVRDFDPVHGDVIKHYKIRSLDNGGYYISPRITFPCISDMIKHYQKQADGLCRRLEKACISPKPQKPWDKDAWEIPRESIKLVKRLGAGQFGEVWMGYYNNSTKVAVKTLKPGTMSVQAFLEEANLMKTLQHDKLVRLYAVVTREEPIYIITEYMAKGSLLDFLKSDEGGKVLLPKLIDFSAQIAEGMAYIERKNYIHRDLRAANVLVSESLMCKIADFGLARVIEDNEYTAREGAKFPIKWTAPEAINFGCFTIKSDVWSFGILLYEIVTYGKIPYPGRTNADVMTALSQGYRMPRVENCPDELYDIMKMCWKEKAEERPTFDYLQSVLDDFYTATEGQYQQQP
Sequence of FynT enzyme (P06241 other isoform, or with tags, fused parts or gaps): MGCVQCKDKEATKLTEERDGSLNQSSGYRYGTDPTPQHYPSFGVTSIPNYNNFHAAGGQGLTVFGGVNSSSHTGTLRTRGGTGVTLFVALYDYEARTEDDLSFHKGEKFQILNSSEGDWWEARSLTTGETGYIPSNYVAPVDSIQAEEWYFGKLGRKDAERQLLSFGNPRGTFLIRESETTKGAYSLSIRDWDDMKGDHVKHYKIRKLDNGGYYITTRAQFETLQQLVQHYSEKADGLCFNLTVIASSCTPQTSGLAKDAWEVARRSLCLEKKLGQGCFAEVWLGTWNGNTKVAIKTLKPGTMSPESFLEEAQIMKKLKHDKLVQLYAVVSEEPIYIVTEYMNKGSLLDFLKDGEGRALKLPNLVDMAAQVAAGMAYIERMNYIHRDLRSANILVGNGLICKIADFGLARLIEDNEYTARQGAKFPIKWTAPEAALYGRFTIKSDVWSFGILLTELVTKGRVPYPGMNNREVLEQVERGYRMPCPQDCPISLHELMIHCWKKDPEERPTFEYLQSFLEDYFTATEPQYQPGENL

On to `CCCc1ccnc(NC(=O)c2ccc(-c3nc([C@H](C)N(C)C(=O)/C=C/CN(C)C)n4ccnc(N)c34)cc2)c1` [Example 76, (S,E)-4-(8-amino-3-(1-(4-(dimethylamino)-N-methylbut-2-enamido)ethyl)imidazo[1,5-a]pyrazin-1-yl)-N-(4-propylpyridin-2-yl)benzamide], for which the half-maximal effective concentration (EC50) is below 10 nM in assay [1] (setting [6]); at least 1 µM in assay [2] (setting [7]); 0.1 to 1 µM in assay [3]; at least 1000 nM in assay [4]; at least 1000 nM in assay [5] (setting [9]). The “EC50 Lck activity values” in assay [3] (setting [8]) was below 1 µM.

For the compound `CC#CC(=O)N1CCC[C@H]1c1nc(-c2ccc(C(=O)Nc3cc(OC)ccn3)cc2)c2c(N)nccn12` [Example 123, (S)-4-(8-amino-3-(1-but-2-ynoylpyrrolidin-2-yl)imidazo[1,5-a]pyrazin-1-yl)-N-(4-methoxypyridin-2-yl)benzamide], the half-maximal effective concentration (EC50) was below 10 nM in assay [1] (setting [6]); at least 1 µM in assay [2] (setting [7]); at least 1 µM in assay [3] (setting [10]); at least 1000 nM in assay [4]; at least 1000 nM in assay [5] (setting [9]).

For `CN(C)C/C=C/C(=O)N1CCC[C@H]1c1nc(-c2ccc(C(=O)Nc3ccccn3)cc2)c2c(N)nccn12` [Example 3, (S,E)-4-(8-Amino-3-(1-(4-(dimethylamino)but-2-enoyl)pyrrolidin-2-yl)imidazo[1,5-a]pyrazin-1-yl)-N-(pyridin-2-yl)benzamide], in assay [1] (setting [6]), the EC50 is below 10 nM.

With `CC#CC(=O)N1CCOC[C@H]1c1nc(-c2ccc(C(=O)Nc3ccccn3)cc2)c2c(N)nccn12` [Example 38, (R)-4-(8-Amino-3-(4-but-2-ynoylmorpholin-3-yl)imidazo[1,5-a]pyrazin-1-yl)-N-(pyridin-2-yl)benzamide], the concentration for a half-maximal effect (EC50) in assay [1] (setting [6]) was below 10 nM; in assay [2] (setting [7]) it was at least 1 µM; in assay [3] (setting [10]) it was at least 1 µM; in assay [4] it was at least 1000 nM; in assay [5] (setting [9]), at least 1000 nM.

For the compound `CC#CC(=O)N1CCCC[C@H]1c1nc(-c2ccc(C(=O)Nc3ncc(CC)s3)cc2)c2c(N)nccn12` [Example 116, (S)-4-(8-amino-3-(1-but-2-ynoylpiperidin-2-yl)imidazo[1,5-a]pyrazin-1-yl)-N-(5-ethylthiazol-2-yl)benzamide], the EC50 in assay [1] (setting [6]) was below 10 nM; in assay [2] (setting [7]), at least 1 µM; in assay [3] (setting [10]) it was at least 1 µM; in assay [4], at least 1000 nM; in assay [5] (setting [9]), at least 1000 nM.

For `CC#CC(=O)N1CCCC[C@H]1c1nc(-c2ccc(C(=O)Nc3ccccn3)cc2)c2c(N)nccn12` [Example 45, (S)-4-(8-amino-3-(1-but-2-ynoylpiperidin-2-yl)imidazo[1,5-a]pyrazin-1-yl)-N-(pyridin-2-yl)benzamide], the 50% effective concentration (EC50) in assay [1] (setting [6]) was below 10 nM; in assay [2] (setting [7]) it was at least 1 µM; in assay [3] (setting [10]), at least 1 µM; in assay [4] it was at least 1000 nM; in assay [5] (setting [9]) it was at least 1000 nM.

Take `COC/C=C/C(=O)N1CCCC[C@H]1c1nc(-c2ccc(C(=O)Nc3ccncn3)cc2)c2c(N)nccn12` [Example 86, (S,E)-4-(8-amino-3-(1-(4-methoxybut-2-enoyl)piperidin-2-yl)imidazo[1,5-a]pyrazin-1-yl)-N-(pyrimidin-4-yl)benzamide]: the EC50 in assay [1] is 100 to 1000 nM; in assay [2] (setting [7]), at least 1 µM; in assay [3] (setting [10]), at least 1 µM; in assay [4], at least 1000 nM; in assay [5] (setting [9]), at least 1000 nM. Further, the “EC50 Btk activity values” in assay [1] (setting [11]) is below 1 µM.

Regarding `CCc1ccnc(NC(=O)c2ccc(-c3nc([C@@H]4CCCN4C(=O)/C=C/COC)n4ccnc(N)c34)cc2)c1` [Example 11, (S,E)-4-(8-Amino-3-(1-(4-methoxybut-2-enoyl)pyrrolidin-2-yl)imidazo[1,5-a]pyrazin-1-yl)-N-(4-ethylpyridin-2-yl)benzamide], the EC50 in assay [1] is 10 to 100 nM; in assay [2] (setting [7]) it was at least 1 µM; in assay [3] (setting [10]) it was at least 1 µM; in assay [4] it was at least 1000 nM; in assay [5] (setting [9]), at least 1000 nM. Further, the “EC50 Btk activity values” in assay [1] (setting [12]) was below 0.1 µM.

With `CC#CC(=O)N1CCC[C@H]1c1nc(-c2ccc(C(=O)Nc3nccs3)cc2)c2c(N)nccn12` [Example 60, (S)-4-(8-amino-3-(1-but-2-ynoylpyrrolidin-2-yl)imidazo[1,5-a]pyrazin-1-yl)-N-(thiazol-2-yl)benzamide], the 50% effective concentration (EC50) in assay [1] was 10 to 100 nM; in assay [2] (setting [13]), at least 0.1 µM; in assay [2] (setting [14]) it was < 1 µM and ≥ 1 µM; in assay [3] it was 0.1 to 1 µM; in assay [4] it was at least 1000 nM; in assay [5] (setting [9]) it was at least 1000 nM. In assay [1] (setting [12]), the “EC50 Btk activity values” is below 0.1 µM. For the same compound, the “EC50 Lck activity values” in assay [3] (setting [8]) was below 1 µM.

For the compound `C=C(C(=O)N1CCC[C@H]1c1nc(-c2ccc(C(=O)Nc3ccccn3)cc2)c2c(N)nccn12)C(F)(F)F` [Example 92, (S)-4-(8-amino-3-(1-(2-(trifluoromethyl)acryloyl)pyrrolidin-2-yl)imidazo[1,5-a]pyrazin-1-yl)-N-(pyridin-2-yl)benzamide], the EC50 in assay [1] is 100 to 1000 nM; in assay [2] (setting [7]) it was at least 1 µM; in assay [3] (setting [10]), at least 1 µM; in assay [4] it was at least 1000 nM; in assay [5] (setting [9]), at least 1000 nM. In addition, the “EC50 Btk activity values” in assay [1] (setting [11]) was below 1 µM.

Regarding `C=CC(=O)N1CCC[C@H]1c1nc(-c2ccc(C(=O)Nc3cc(CC)ccn3)cc2)c2c(N)nccn12` [Example 126, (S)-4-(3-(1-acryloylpyrrolidin-2-yl)-8-aminoimidazo[1,5-a]pyrazin-1-yl)-N-(4-ethylpyridin-2-yl)benzamide], the half-maximal effective concentration (EC50) in assay [1] (setting [6]) is below 10 nM; in assay [2] (setting [13]) it was 0.1 to 1 µM; in assay [3], 0.1 to 1 µM; in assay [4], at least 1000 nM; in assay [5] (setting [9]) it was at least 1000 nM. The “EC50 Lyn activity values” in assay [2] (60 min pre-incubation, 2 μM ATP, bin bound in μM) is below 1 µM. Also, in assay [3] (setting [8]), the “EC50 Lck activity values” is below 1 µM.

In the case of `CC#CC(=O)N1CCC[C@H]1c1nc(-c2ccc(C(=O)Nc3nc4c(s3)CCCC4)cc2)c2c(N)nccn12` [Example 12, (S)-4-(8-Amino-3-(1-but-2-ynoylpyrrolidin-2-yl)imidazo[1,5-a]pyrazin-1-yl)-N-(4,5,6,7-tetrahydrobenzo[d]thiazol-2-yl)benzamide], the EC50 is below 10 nM in assay [1] (setting [6]); at least 1 µM in assay [2] (setting [7]); at least 1 µM in assay [3] (setting [10]); at least 1000 nM in assay [4]; at least 1000 nM in assay [5] (setting [9]).

With `COC/C=C/C(=O)NCc1nc(-c2ccc(C(=O)Nc3ccccn3)cc2)c2c(N)nccn12` [Example 95, (E)-4-(8-amino-3-((4-methoxybut-2-enamido)methyl)imidazo[1,5-a]pyrazin-1-yl)-N-(pyridin-2-yl)benzamide], the EC50 in assay [1] is 10 to 100 nM; in assay [2] (setting [7]) it was at least 1 µM; in assay [3] (setting [10]), at least 1 µM; in assay [4] it was at least 1000 nM; in assay [5] (setting [9]), at least 1000 nM. The “EC50 Btk activity values” in assay [1] (setting [12]) was below 0.1 µM.

For the compound `CC#CC(=O)N1CCCC[C@H]1c1nc(-c2ccc(C(=O)Nc3ccccn3)cc2C)c2c(N)nccn12` [Example 28, 4-(8-Amino-3-((S)-1-but-2-ynoylpiperidin-2-yl)imidazo[1,5-a]pyrazin-1-yl)-3-methyl-N-(pyridin-2-yl)benzamide], the EC50 in assay [1] (setting [6]) is below 10 nM; in assay [2] (setting [7]), at least 1 µM; in assay [3] (setting [10]), at least 1 µM; in assay [4] it was at least 1000 nM; in assay [5] (setting [9]), at least 1000 nM.

On to `C/C=C/C(=O)N1CCC[C@H]1c1nc(-c2ccc(C(=O)Nc3ccccn3)cc2)c2c(N)nccn12` [Example 93, (S,E)-4-(8-amino-3-(1-but-2-enoylpyrrolidin-2-yl)imidazo[1,5-a]pyrazin-1-yl)-N-(pyridin-2-yl)benzamide], for which the 50% effective concentration (EC50) is at least 1 µM in assay [2] (setting [7]), at least 1 µM in assay [3], at least 1000 nM in assay [4] and at least 1000 nM in assay [5] (setting [9]).

As to `CN(C)C/C=C/C(=O)N1CCC[C@H]1c1nc(-c2ccc(C(=O)Nc3ccccn3)cc2)c2c(N)nccn12` [Example 127, (S,E)-4-(8-amino-3-(1-(4-(dimethylamino)but-2-enoyl)pyrrolidin-2-yl)imidazo[1,5-a]pyrazin-1-yl)-N-(pyridin-2-yl)benzamide], the EC50 in assay [2] (setting [7]) is at least 1 µM; in assay [3] (setting [10]), at least 1 µM; in assay [4] it was at least 1000 nM; in assay [5] (setting [9]) it was at least 1000 nM.

As for `CC#CC(=O)N1CCC[C@H]1c1nc(-c2ccc(C(=O)Nc3ccccn3)cc2)c2c(N)nccn12` [Example 6, (S)-4-(8-amino-3-(1-but-2-ynoylpyrrolidin-2-yl)imidazo[1,5-a]pyrazin-1-yl)-N-(pyridin-2-yl)benzamide], the EC50 was at least 1 µM in assay [2] (setting [14]), at least 1 µM in assay [3], at least 1000 nM in assay [4] and at least 1000 nM in assay [5].

As a reminder, the EC50 is the concentration that produces a half-maximal response.
